Test results reported in the supplement of paper PMC10307832.

How the values were obtained:
Assay in all cases: relative viability (nuclei count vs DMSO), 5 days (fraction); higher = more cells survive
[1] = compound: CC1=CC(=CC=C1)NC2=NC(=CS2)C3=CC=NC=C3 + COc1cccc2cc(-c3nc([C@H]4CC[C@H](C(=O)O)CC4)n4ncnc(N)c34)[nH]c12 [OSI-027] (partner 0.5 µM)
Method in brief: (§1)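 Five library-drug doses in √10 steps were combined with a fixed anchor-drug dose, or a single drug was given alone, by pin tool to lung cancer cell lines in 1536-well plates the day after seeding. Nuclei were stained and counted after 5 days. Relative viability is the nuclei count in treated wells over that in vehicle wells, taken as the median of duplicate plates.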

Masitinib + Dasatinib = compound: Cc1ccc(NC(=O)c2ccc(CN3CCN(C)CC3)cc2)cc1Nc1nc(-c2cccnc2)cs1 [Masitinib] + Cc1nc(Nc2ncc(C(=O)Nc3c(C)cccc3Cl)s2)cc(N2CCN(CCO)CC2)n1 [Dasatinib] (partner 0.075 µM)
Method in brief: as §1

[2] = compound: CC1=CC(=CC=C1)NC2=NC(=CS2)C3=CC=NC=C3 + CS(=O)(=O)N1CCN(Cc2cc3nc(-c4cccc5[nH]ncc45)nc(N4CCOCC4)c3s2)CC1 [Pictilisib] (partner 1 µM)
Method in brief: as §1

Masitinib + Lapatinib = compound: Cc1ccc(NC(=O)c2ccc(CN3CCN(C)CC3)cc2)cc1Nc1nc(-c2cccnc2)cs1 [Masitinib] + CS(=O)(=O)CCNCc1ccc(-c2ccc3ncnc(Nc4ccc(OCc5cccc(F)c5)c(Cl)c4)c3c2)o1 [Lapatinib] (partner 2 µM)
Method in brief: as §1

NCI-H1734 gave a relative viability ([1]; first compound 0.08 µM) of 0.481, a relative viability ([1]; first compound 0.253 µM) of 0.554 and a relative viability ([1]; first compound 0.8 µM) of 0.654. For the same cell line, the relative viability ([1]; first compound 2.53 µM) was 0.7, the relative viability ([1]; first compound 8 µM) was 0.618 and the relative viability (Masitinib + Dasatinib; first compound 0.01 µM) was 0.449. For the same cell line, the relative viability (Masitinib + Dasatinib; first compound 0.03162 µM) was 0.521, the relative viability (Masitinib + Dasatinib; first compound 0.1 µM) was 0.508 and the relative viability (Masitinib + Dasatinib; first compound 0.3162 µM) was 0.518. For the same cell line, the relative viability (Masitinib + Dasatinib; first compound 1 µM) was 0.416, the relative viability ([2]; first compound 0.08 µM) was 0.479 and the relative viability ([2]; first compound 0.253 µM) was 0.499. The relative viability ([2]; first compound 0.8 µM) was 0.494, the relative viability ([2]; first compound 2.53 µM) was 0.588 and the relative viability ([2]; first compound 8 µM) was 0.43. The relative viability (Masitinib + Lapatinib; first compound 0.01 µM) was 0.915, the relative viability (Masitinib + Lapatinib; first compound 0.03162 µM) was 0.956 and the relative viability (Masitinib + Lapatinib; first compound 0.1 µM) was 1.02. The relative viability (Masitinib + Lapatinib; first compound 0.3162 µM) was 0.85 and the relative viability (Masitinib + Lapatinib; first compound 1 µM) was 1.
NCI-H1666 was tested, and the relative viability ([1]; first compound 0.08 µM) was 0.582, the relative viability ([1]; first compound 0.253 µM) was 0.598 and the relative viability ([1]; first compound 0.8 µM) was 0.676. For the same cell line, the relative viability ([1]; first compound 2.53 µM) was 0.501, the relative viability ([1]; first compound 8 µM) was 0.507 and the relative viability (Masitinib + Dasatinib; first compound 0.03162 µM) was 0.713. It also gave a relative viability (Masitinib + Dasatinib; first compound 0.1 µM) of 0.858, a relative viability (Masitinib + Dasatinib; first compound 0.3162 µM) of 0.818 and a relative viability (Masitinib + Dasatinib; first compound 1 µM) of 0.817. The relative viability ([2]; first compound 0.08 µM) was 0.326, the relative viability ([2]; first compound 0.253 µM) was 0.358 and the relative viability ([2]; first compound 0.8 µM) was 0.351. For the same cell line, the relative viability ([2]; first compound 2.53 µM) was 0.329, the relative viability ([2]; first compound 8 µM) was 0.3 and the relative viability (Masitinib + Lapatinib; first compound 0.01 µM) was 0.677. For the same cell line, the relative viability (Masitinib + Lapatinib; first compound 0.03162 µM) was 0.657, the relative viability (Masitinib + Lapatinib; first compound 0.1 µM) was 0.706 and the relative viability (Masitinib + Lapatinib; first compound 0.3162 µM) was 0.428. The relative viability (Masitinib + Lapatinib; first compound 1 µM) was 0.557.
For NCI-H460, the relative viability ([1]; first compound 0.08 µM) was 0.623, the relative viability ([1]; first compound 0.253 µM) was 0.522 and the relative viability ([1]; first compound 0.8 µM) was 0.628. It also gave a relative viability ([1]; first compound 2.53 µM) of 0.486, a relative viability ([1]; first compound 8 µM) of 0.341 and a relative viability (Masitinib + Dasatinib; first compound 0.01 µM) of 0.392. The relative viability (Masitinib + Dasatinib; first compound 0.03162 µM) was 0.447, the relative viability (Masitinib + Dasatinib; first compound 0.1 µM) was 0.561 and the relative viability (Masitinib + Dasatinib; first compound 0.3162 µM) was 0.344. For the same cell line, the relative viability (Masitinib + Dasatinib; first compound 1 µM) was 0.485, the relative viability ([2]; first compound 0.08 µM) was 0.311 and the relative viability ([2]; first compound 0.253 µM) was 0.257. For the same cell line, the relative viability ([2]; first compound 0.8 µM) was 0.337, the relative viability ([2]; first compound 2.53 µM) was 0.354 and the relative viability ([2]; first compound 8 µM) was 0.336. For the same cell line, the relative viability (Masitinib + Lapatinib; first compound 0.01 µM) was 0.996, the relative viability (Masitinib + Lapatinib; first compound 0.03162 µM) was 1.13 and the relative viability (Masitinib + Lapatinib; first compound 0.1 µM) was 0.921. For the same cell line, the relative viability (Masitinib + Lapatinib; first compound 0.3162 µM) was 1.05 and the relative viability (Masitinib + Lapatinib; first compound 1 µM) was 1.26.
Work on LCLC-97TM1 yielded a relative viability ([1]; first compound 0.08 µM) of 0.413, a relative viability ([1]; first compound 0.253 µM) of 0.43 and a relative viability ([1]; first compound 0.8 µM) of 0.546. It also gave a relative viability ([1]; first compound 2.53 µM) of 0.513, a relative viability ([1]; first compound 8 µM) of 0.692 and a relative viability (Masitinib + Dasatinib; first compound 0.03162 µM) of 0.961. It also gave a relative viability (Masitinib + Dasatinib; first compound 0.1 µM) of 0.903, a relative viability (Masitinib + Dasatinib; first compound 0.3162 µM) of 0.943 and a relative viability (Masitinib + Dasatinib; first compound 1 µM) of 0.84. For the same cell line, the relative viability ([2]; first compound 0.8 µM) was 0.282, the relative viability ([2]; first compound 2.53 µM) was 0.207 and the relative viability ([2]; first compound 8 µM) was 0.198. For the same cell line, the relative viability (Masitinib + Lapatinib; first compound 0.01 µM) was 0.767, the relative viability (Masitinib + Lapatinib; first compound 0.03162 µM) was 1.13 and the relative viability (Masitinib + Lapatinib; first compound 0.1 µM) was 0.673. The relative viability (Masitinib + Lapatinib; first compound 0.3162 µM) was 1.57 and the relative viability (Masitinib + Lapatinib; first compound 1 µM) was 0.715.
In the case of NCI-H838, the relative viability ([1]; first compound 0.08 µM) is reported as 0.318, the relative viability ([1]; first compound 0.253 µM) is reported as 0.357 and the relative viability ([1]; first compound 0.8 µM) is reported as 0.37. It also gave a relative viability ([1]; first compound 2.53 µM) of 0.386, a relative viability ([1]; first compound 8 µM) of 0.348 and a relative viability (Masitinib + Dasatinib; first compound 0.01 µM) of 0.304. It also gave a relative viability (Masitinib + Dasatinib; first compound 0.03162 µM) of 0.258, a relative viability (Masitinib + Dasatinib; first compound 0.1 µM) of 0.344 and a relative viability (Masitinib + Dasatinib; first compound 0.3162 µM) of 0.266. It also gave a relative viability (Masitinib + Dasatinib; first compound 1 µM) of 0.229, a relative viability ([2]; first compound 0.08 µM) of 0.382 and a relative viability ([2]; first compound 0.253 µM) of 0.334. For the same cell line, the relative viability ([2]; first compound 0.8 µM) was 0.4, the relative viability ([2]; first compound 2.53 µM) was 0.288 and the relative viability ([2]; first compound 8 µM) was 0.289. For the same cell line, the relative viability (Masitinib + Lapatinib; first compound 0.01 µM) was 0.808, the relative viability (Masitinib + Lapatinib; first compound 0.03162 µM) was 0.846 and the relative viability (Masitinib + Lapatinib; first compound 0.1 µM) was 0.774. It also gave a relative viability (Masitinib + Lapatinib; first compound 0.3162 µM) of 0.794 and a relative viability (Masitinib + Lapatinib; first compound 1 µM) of 1.02.
With NCI-H1437 the relative viability ([1]; first compound 0.08 µM) was 1.04, the relative viability ([1]; first compound 0.253 µM) was 1.02 and the relative viability ([1]; first compound 0.8 µM) was 1.08. It also gave a relative viability ([1]; first compound 2.53 µM) of 1.04, a relative viability ([1]; first compound 8 µM) of 0.714 and a relative viability (Masitinib + Dasatinib; first compound 0.01 µM) of 0.457. It also gave a relative viability (Masitinib + Dasatinib; first compound 0.03162 µM) of 0.396, a relative viability (Masitinib + Dasatinib; first compound 0.1 µM) of 0.454 and a relative viability (Masitinib + Dasatinib; first compound 0.3162 µM) of 0.527. For the same cell line, the relative viability (Masitinib + Dasatinib; first compound 1 µM) was 0.387, the relative viability ([2]; first compound 0.08 µM) was 0.53 and the relative viability ([2]; first compound 0.253 µM) was 0.613. It also gave a relative viability ([2]; first compound 0.8 µM) of 0.689, a relative viability ([2]; first compound 2.53 µM) of 0.294 and a relative viability ([2]; first compound 8 µM) of 0.285. It also gave a relative viability (Masitinib + Lapatinib; first compound 0.01 µM) of 0.661, a relative viability (Masitinib + Lapatinib; first compound 0.03162 µM) of 0.755 and a relative viability (Masitinib + Lapatinib; first compound 0.1 µM) of 0.798. The relative viability (Masitinib + Lapatinib; first compound 0.3162 µM) was 0.832 and the relative viability (Masitinib + Lapatinib; first compound 1 µM) was 0.728.
HOP-62 was tested, and the relative viability ([1]; first compound 0.08 µM) was 0.714, the relative viability ([1]; first compound 0.253 µM) was 0.774 and the relative viability ([1]; first compound 0.8 µM) was 0.849. It also gave a relative viability ([1]; first compound 2.53 µM) of 0.786, a relative viability ([1]; first compound 8 µM) of 0.729 and a relative viability (Masitinib + Dasatinib; first compound 0.01 µM) of 0.604. For the same cell line, the relative viability (Masitinib + Dasatinib; first compound 0.03162 µM) was 0.632, the relative viability (Masitinib + Dasatinib; first compound 0.1 µM) was 0.785 and the relative viability (Masitinib + Dasatinib; first compound 0.3162 µM) was 0.634. The relative viability (Masitinib + Dasatinib; first compound 1 µM) was 0.606, the relative viability ([2]; first compound 0.08 µM) was 0.581 and the relative viability ([2]; first compound 0.253 µM) was 0.758. It also gave a relative viability ([2]; first compound 0.8 µM) of 1.09, a relative viability ([2]; first compound 2.53 µM) of 0.668 and a relative viability ([2]; first compound 8 µM) of 0.903. For the same cell line, the relative viability (Masitinib + Lapatinib; first compound 0.01 µM) was 0.814, the relative viability (Masitinib + Lapatinib; first compound 0.03162 µM) was 1.11 and the relative viability (Masitinib + Lapatinib; first compound 0.1 µM) was 0.854. The relative viability (Masitinib + Lapatinib; first compound 0.3162 µM) was 1.31 and the relative viability (Masitinib + Lapatinib; first compound 1 µM) was 0.937.
With NCI-H2087 the relative viability ([1]; first compound 0.08 µM) was 0.499, the relative viability ([1]; first compound 0.253 µM) was 0.543 and the relative viability ([1]; first compound 0.8 µM) was 0.554. For the same cell line, the relative viability ([1]; first compound 2.53 µM) was 0.673, the relative viability ([1]; first compound 8 µM) was 0.639 and the relative viability (Masitinib + Dasatinib; first compound 0.01 µM) was 0.922. For the same cell line, the relative viability (Masitinib + Dasatinib; first compound 0.03162 µM) was 0.927, the relative viability (Masitinib + Dasatinib; first compound 0.1 µM) was 1.01 and the relative viability (Masitinib + Dasatinib; first compound 0.3162 µM) was 0.775. It also gave a relative viability (Masitinib + Dasatinib; first compound 1 µM) of 0.788, a relative viability ([2]; first compound 0.08 µM) of 0.616 and a relative viability ([2]; first compound 0.253 µM) of 0.812. The relative viability ([2]; first compound 0.8 µM) was 0.851, the relative viability ([2]; first compound 2.53 µM) was 0.885 and the relative viability ([2]; first compound 8 µM) was 0.77. For the same cell line, the relative viability (Masitinib + Lapatinib; first compound 0.01 µM) was 0.757, the relative viability (Masitinib + Lapatinib; first compound 0.03162 µM) was 1.06 and the relative viability (Masitinib + Lapatinib; first compound 0.1 µM) was 0.77. For the same cell line, the relative viability (Masitinib + Lapatinib; first compound 0.3162 µM) was 1.22 and the relative viability (Masitinib + Lapatinib; first compound 1 µM) was 0.861.
